Results reported in PMC9457610, “Synthesis of thia-Michael-Type Adducts between Naphthoquinones and N-Acetyl-L-Cysteine and Their Biological Activity” (Molecules, 2022).

Columns and labels:
SH-SY5Y = assay: MTT cell viability assay, SH-SY5Y; assay type: cell-based; settings: Homo sapiens, 48 h treatment, 0.01 to 200 μM, ± SD, n.a. = not active
Experimental: (§1) Molecules 8–12 were tested in vitro using the MTT assay against four cancer cell lines: HeLa, SH-SY5Y, SaOS2, and U2OS. […] Cytotoxic activities were expressed as IC50 values, i.e., the concentration of the substance that reduced cell viability by 50% (Table 2).
(§2) HeLa, SH-SY5Y, SaOS2, U2OS, and HDFa cell lines were purchased from American Type Culture Collection (ATCC; Manassas, VA, USA). HeLa, SaOS2, and U2OS cells were cultured in RPMI 1640 medium (Labtek Eurobio, Milan, Italy), while SH-SY5Y and HDFa cells were cultured in high-glucose DMEM (Labtek Eurobio, Milan, Italy), and both were supplemented with 10% FCS (Euroclone, Milan, Italy) and 2mM L-glutamine (Sigma-Aldrich, Milan, Italy), at 37 °C in a 5% CO2 atmosphere. The compounds were dissolved in DMSO in a 30–50 mM stock solution. In cell treatments, the final DMSO concentration never exceeded 0.1%.
(§3) Cells were seeded at 1.5 × 10^4 cells/well in a 96-well culture plastic plate (Orange Scientific, Braine-l’Alleud, Belgium), and after 24 h of growth, they were exposed to increasing concentrations of compounds (from 0.01 to 200 μM) solubilized in RPMI 1640 medium. After 48 h of treatment, the culture medium was replaced with 0.1 mL of 3-(4,5-dimethylthiazolyl-2)-2,5-diphenyltetrazolium bromide (MTT; Sigma-Aldrich, Milan, Italy) dissolved in PBS at the concentration of 0.2 mg/mL, and samples were incubated for 2 h at 37 °C. The formazan salt crystals formed were dissolved with 0.2 mL of isopropyl alcohol for 20 min. The absorbance at 570 nm was measured using a multi-well plate reader (Tecan, Männedorf, Switzerland), and data were analyzed using Prism GraphPad software and expressed as IC50.

[1] = system: HeLa, SH-SY5Y, SaOS2, and U2OS; assay: MTT cell viability assay, all malignant cell lines tested (summary); assay type: cell-based, human; settings: summary over HeLa, 48 h; for IC50: Homo sapiens, read-out: IC50 values against all the malignant cell lines tested
Experimental: as §1, §2, §3

HeLa = assay: MTT cell viability assay, HeLa; assay type: cell-based; settings: Homo sapiens, 48 h treatment, 0.01 to 200 μM, ± SD, n.a. = not active
Experimental: as §1, §2, §3

U2OS = assay: MTT cell viability assay, U2OS; assay type: cell-based; settings: Homo sapiens, 48 h treatment, 0.01 to 200 μM, ± SD, n.a. = not active
Experimental: as §1, §2, §3

SaOS2 = assay: MTT cell viability assay, SaOS2; assay type: cell-based; settings: Homo sapiens, SAOS-2, 48 h treatment, 0.01 to 200 μM, ± SD, n.a. = not active
Experimental: as §1, §2, §3

HDFa = assay: MTT cell viability assay, normal cell line HDFa; assay type: cell-based; settings: Homo sapiens, normal dermal fibroblast, 48 h treatment, ± SD
Experimental: as §1, §2, §3

HeLa cells [2] = assay: Intracellular ROS level (DCFDA), HeLa; assay type: cell-based, human
Experimental: (§4) To further explore and establish a direct relationship between 8 or 11 and ROS, DCFH-DA staining was applied to HeLa, U2OS, and SH-SY5Y cells treated for 1 h and 48 h. […] Indeed, in HeLa cells, 8 induced an increase in ROS formation of 1.14 ± 0.042, while in U2OS and SH-SY5Y cells, the increases were 1.30 ± 0.13-fold and 1.51 ± 0.16-fold with respect to control, with p < 0.0001, p < 0.0005, and p < 0.0024, respectively. In the same way, 11 induced increases in ROS formation in HeLa cells of 1.27 ± 0.16, while in U2OS and SH-SY5Y cells, the increases were 1.62 ± 0.11-fold and 1.61 ± 0.14-fold with respect to control, with p < 0.0049, p < 0.0001, and p < 0.0056, respectively. Moreover, it is important to note that both compounds 8 and 11 induced a greater formation of ROS in U2OS and SH-SY5Y cells than in HeLa cells, as shown in Figure 5A.
(§5) Oxidative stress was measured in intact cells using an ROS indicator, 2′,7′-dichlorodihydrofluorescein diacetate (DCFDA; Thermo Fisher Scientific, Waltham, MA, USA). HeLa, U2OS, and SH-SY5Y cells were seeded in 96-well plates at 1.5 × 10^4 cells/well (Optiplate, Perkin Elmer, Milan, Italy), and after 24 h to allow adhesion, HeLa and SH-SY5Y cells were incubated with 5 μM GA 462 or 20 μM SM71, while U2OS were treated with 5 μM 8 or 30 μM 11, dissolved in complete medium for 1 or 48 h at 37 °C in 5% CO2 atmosphere. After this time, cells were washed with PBS and treated with 10 μM DCFDA in culture medium for 30 min. Finally, cells were washed again with PBS and the fluorescence value in each well was measured (λexc = 488 nm; λem = 530 nm) with a plate reader (Tecan, Männedorf, Switzerland). Fluorescence emission was normalized to protein content measured using the Bradford method.

HeLa cells [3] = assay: Cell-cycle analysis (PI stain, flow cytometry), HeLa; assay type: cell-based, human; settings: 5 μM
Experimental: (§6) For this reason, we decided to analyze the effects on proliferation by treating the cells only with 8. Next, we explored the effect of 5 μM 8 on cell-cycle distribution in HeLa, U2OS, and SH-SY5Y cancer cells using PI stain followed by flow cytometry. Cells were exposed to the compound for 24 or 48 h prior to processing and analysis.
(§7) The effects on the HeLa and U2OS cell cycles were studied after 24 or 48 h of treatment with 5 μM 8. Cells were detached with 0.11% trypsin, washed in PBS and centrifuged. The pellet was resuspended in 0.01% Nonidet P-40, 10 μg/mL RNase, 0.1% sodium citrate, and 50 μg/mL PI, for 30 min at room temperature in the dark. Flow cytometric analyses were performed as previously described.

SH-SY5Y cells [4] = assay: Intracellular ROS level (DCFDA), SH-SY5Y; assay type: cell-based, human; settings: for increase in ROS formation with respect to control: 1 h, 5 μM 8 (GA 462) or 20 μM 11 (SM71); for ROS production: 48 h, 5 μM 8 or 20 μM 11
Experimental: as §4, §5

SH-SY5Y cells [5] = assay: Cell-cycle analysis (PI stain, flow cytometry), SH-SY5Y; assay type: cell-based, human; settings: 5 μM
Experimental: as §6, §7

U2OS cells [6] = assay: Cell-cycle analysis (PI stain, flow cytometry), U2OS; assay type: cell-based, human; settings: 5 μM
Experimental: as §6, §7

U2OS cells [7] = assay: Intracellular ROS level (DCFDA), U2OS; assay type: cell-based, human; settings: 5 μM 8 or 30 μM 11; for increase in ROS formation with respect to control: 1 h; for ROS production: 48 h
Experimental: as §4, §5

[8] = 1 h, 5 μM 8 (GA 462) or 20 μM 11 (SM71)

Row | SMILES | IC50 (SH-SY5Y) [µM] | IC50 [1] [µM] | IC50 (HeLa) [µM] | IC50 (U2OS) [µM] | melting point | IC50 (SaOS2) [µM] | IC50 (HDFa) [µM] | IC50 values against all the malignant cell lines tested [1] | increase in ROS formation with respect to control (HeLa cells [2]; [8]) [fold] | increase in ROS formation with respect to control (HeLa cells [2]; 48 h, 5 μM 8) [fold] | increase in the number of G0/G1-phase cells with respect to control (HeLa cells [3]; 24 h) [%] | increase in the number of cells in the S phase with respect to control (HeLa cells [3]; 48 h) [%] | increase in ROS formation with respect to control (SH-SY5Y cells [4]) [fold] | ROS production (SH-SY5Y cells [4]) | increase in S-phase cells with respect to control (SH-SY5Y cells [5]; 24 h) [%] | accumulation of cells in the S phase with respect to control (SH-SY5Y cells [5]; 48 h) [%] | increase in S-phase cells with respect to control (U2OS cells [6]; 24 h) [%] | accumulation of cells in the S phase with respect to control (U2OS cells [6]; 48 h) [%] | increase in ROS formation with respect to control (U2OS cells [7]) [fold] | ROS production (U2OS cells [7])
1 | CC(=O)N[C@@H](CSC1=CC(=O)c2c(O)ccc(O)c2C1=O)C(=O)O [Compound 12, N-acetyl-S-(5,8-dihydroxy-1,4-dioxo-1,4-dihydronaphtalen-2-yl)-L-cysteine] | 0.63 ± 0.04 | 0.5 to 1.81 | 1.04 ± 0.008 | 1.65 ± 0.03 | 238.2 to 239.9 °C | 1.56 ± 0.03 | 0.83 ± 0.007 |  |  |  |  |  |  |  |  |  |  |  |  | 
2 | CC(=O)N[C@@H](CSC1=C(C)C(=O)c2ccccc2C1=O)C(=O)O [Compound 9, N-acetyl-S-(3-methyl-1,4-dioxo-1,4-dihydronaphthalen-2-yl)-L-cysteine] | 0.96 ± 0.06 | 0.5 to 1.81 | 0.5 ± 0.08 | 0.51 ± 0.06 | 206.9 to 208.3 °C | 0.59 ± 0.04 | 3.87 ± 0.01 |  |  |  |  |  |  |  |  |  |  |  |  | 
3 | CC(=O)N[C@@H](CSC1=C(C)C(=O)c2cccc(O)c2C1=O)C(=O)O [Compound 10, N-acetyl-S-(8-hydroxy-3-methyl-1,4-dioxo-1,4-dihydronaphthalen-2-yl)-L-cysteine] |  |  |  |  | > 193 °C (dec.) |  |  | inactive |  |  |  |  |  |  |  |  |  |  |  | 
4 | CC(=O)N[C@@H](CSC1=CC(=O)c2ccccc2C1=O)C(=O)O [Compound 8, N-acetyl-S-(1,4-dioxo-1,4-dihydronaphthalen-2-yl)-L-cysteine] | 0.87 ± 0.003 | 0.5 to 1.81 | 0.54 ± 0.05 | 1.81 ± 0.007 |  | 1.67 ± 0.01 | 7.43 ± 0.02 |  | 1.14 ± 0.042 | 2.28 ± 0.47 | 1.3 | 1.2 | 1.51 ± 0.16 | no ROS production | 1.1 | 1.3 | 1.3 | 1.1 | 1.30 ± 0.13 | no ROS production
5 | CC(=O)N[C@@H](CSC1=CC(=O)c2c(O)cccc2C1=O)C(=O)O [Compound 11, N-acetyl-S-(5-hydroxy-1,4-dioxo-1,4-dihydronaphthalen-2-yl)-L-cysteine] | 11.4 ± 0.001 |  | 13.2 ± 0.05 | 30.4 ± 0.005 | 209.8 to 211.7 °C | 25.9 ± 0.05 | 6.88 ± 0.05 |  | 1.27 ± 0.16 |  |  |  | 1.61 ± 0.14 | no ROS production |  |  |  |  | 1.62 ± 0.11 | no ROS production
